Results: patent US20090298814A1, “Novel salts of conjugated psychotropic drugs and processes of preparing same” (RAMOT AT TEL AVIV UNIVERISTY LTD, priority 2005, published 2009)

Tests used:
Type in all cases: physicochemical
[1] = Stability of the free base of the conjugate by HPLC at 20 and 40° C.
Description: (§1) HPLC analyses were performed on a Water 2695 Separations Module, using a Luna C18 (2) 50 mm×4.6 mm×3 um column, a 5 μl injection volume and a 2487 dual wavelength detector under the following instrumental conditions: Mobile phase A: 0.1% formic acid; Mobile phase B: acetonitrile; Flow rate: 0.5 ml per minute; Mobile phase gradient: 0.0 minutes 90% A, 10% B, 14.0 minutes 20% A, 80% B, 15.0 minutes 90% A, 10% B and 20.0 minutes 90% A, 10% B; Run time: 20 minutes; Detection: UV at 254 nm; Column temperature: 40° C.
The stability of neat free base of the chemical conjugate was determined by performing an HPLC analysis daily during a period of 24 days and determining the appearance of its degradation products perphenazine and GABA. Samples of the neat free base of the conjugate were collected after deprotection of AN-197 with TFA, as described in the preparation of the maleate and oxalate salts, using the general procedure described above in Example 9, were dissolved in the mobile phase solution which was used in the HPLC analysis (2:1 acetonitrile:water, pH 8) and were kept to either at 20° C. or at 40° C.

[2] = Chemical stability of the oxalate salt by HPLC, open container; conditions: for perphenazine content (HPLC) / purity of the salt (HPLC): open container at room temperature
Description: as §1
(§2) A sample of the oxalate addition salt was kept in an open container at room temperature for a five-week period (about 840 hours) and analyzed thereafter. The hygroscopicity of the oxalate salt was determined by following the water content of the salt using the Karl Fischer (KF) titration analysis method and the chemical stability of the oxalate salt was determined by following the appearance of the degradation product perphenazine in HPLC analysis.

[3] = Hygroscopicity of the oxalate salt by Karl Fischer titration; conditions: open container at room temperature
Description: (§3) Water absorption and content measurements were carried out using a Karl Fischer (KF) titrator. Karl Fischer titration is a classic method in analytical chemistry that uses calometric titration to determine the moisture content of a sample, which is specific to water. The titration reaction taking place in the presence of a base and 50:50 methanol:dichloromethane as a titration solvent.
(§4) The accurately weighted samples (near 100 mg) of the tested compound were placed in the titrator to determine the amount of sample required for measuring 10-250 μg of water, and the water content was calculated accordingly.
as §2

[4] = Stability of the 1-napsylate salt; conditions: two weeks
[5] = Stability of AN-168 dry salt by HPLC at 5, 20 and 40° C.
Description: as §1
To determine the stability of the HCl salt of the GABA conjugate (AN-168), prepared according to the procedure described in Example 2 above, three samples of the salt were studied by HPLC analyses. Thus, samples of AN-168 as dry salt were kept at 5° C., 20° C. and 40° C. over a period of 24 day and were analyzed by HPLC for determining the appearance of degradation products.

[6] = Water content of AN-168 by Karl Fischer (KF) titration
Description: as §3
The Karl Fischer chemical reaction takes place between iodine and water with the reactants being in a 1 to 1 ratio between iodine and water.
as §4

[7] = in HPLC mobile phase (2:1 acetonitrile:water, pH 8), kept at 20° C., 0 hours
[8] = in HPLC mobile phase (2:1 acetonitrile:water, pH 8), kept at 40° C., 0 hours
[9] = in HPLC mobile phase, kept at 20° C., 24 hours
[10] = in HPLC mobile phase, kept at 20° C., 168 hours
[11] = in HPLC mobile phase, kept at 20° C., 336 hours
[12] = in HPLC mobile phase, kept at 20° C., 504 hours
[13] = in HPLC mobile phase, kept at 20° C., 576 hours
[14] = in HPLC mobile phase, kept at 40° C., 24 hours
[15] = in HPLC mobile phase, kept at 40° C., 168 hours
[16] = in HPLC mobile phase, kept at 40° C., 336 hours
[17] = in HPLC mobile phase, kept at 40° C., 504 hours
[18] = in HPLC mobile phase, kept at 40° C., 576 hours
[19] = end of five-week period (about 840 hours)
[20] = sealed and open container at room temperature
[21] = dry salt kept at 5° C., 0 hours
[22] = dry salt kept at 5° C., 24 hours
[23] = dry salt kept at 5° C., 48 hours
[24] = dry salt kept at 5° C., 120 hours
[25] = dry salt kept at 5° C., 144 hours
[26] = dry salt kept at 5° C., 336 hours
[27] = dry salt kept at 5° C., 456 hours
[28] = dry salt kept at 5° C., 504 hours
[29] = dry salt kept at 5° C., 576 hours
[30] = dry salt kept at 20° C., 0 hours
[31] = dry salt kept at 20° C., 24 hours
[32] = dry salt kept at 20° C., 48 hours
[33] = dry salt kept at 20° C., 120 hours
[34] = dry salt kept at 20° C., 144 hours
[35] = dry salt kept at 20° C., 336 hours
[36] = dry salt kept at 20° C., 456 hours
[37] = dry salt kept at 20° C., 504 hours
[38] = dry salt kept at 20° C., 576 hours
[39] = dry salt kept at 40° C., 0 hours
[40] = dry salt kept at 40° C., 24 hours
[41] = dry salt kept at 40° C., 48 hours
[42] = dry salt kept at 40° C., 120 hours
[43] = dry salt kept at 40° C., 144 hours
[44] = dry salt kept at 40° C., 336 hours
[45] = dry salt kept at 40° C., 456 hours
[46] = dry salt kept at 40° C., 504 hours
[47] = dry salt kept at 40° C., 576 hours

In the case of `NCCCC(=O)OCCN1CCN(CCCN2c3ccccc3Sc3ccc(Cl)cc32)CC1` [Free base], the stability in words ([1]; at both temperatures (20° C. and 40° C.)) is reported as “highly unstable”, the “relative peak area degradation to perphenazine” value ([1]; first 24 hours, sample kept at 20° C.) is reported as “approximately 5%” and the “free base degraded to perphenazine” value ([1]; first 24 hours, sample kept at 40° C.) is reported as “more than 20%”. The “Free base % area” value [1, 7] was 98.50 % area, the Perphenazine % area [1, 7] was 1.50 % area and the “Free base % area” value [1, 8] was 98.50 % area. The Perphenazine % area [1, 8] was 1.50 % area, the “Free base % area” value [1, 9] was 95.05 % area and the Perphenazine % area [1, 9] was 4.95 % area. The “Free base % area” value [1, 10] was 74.71 % area, the Perphenazine % area [1, 10] was 25.29 % area and the “Free base % area” value [1, 11] was 61.63 % area. For the same compound, the Perphenazine % area [1, 11] was 38.37 % area, the “Free base % area” value [1, 12] was 53.35 % area and the Perphenazine % area [1, 12] was 46.65 % area. The “Free base % area” value [1, 13] was 47.23 % area, the Perphenazine % area [1, 13] was 52.77 % area and the “Free base % area” value [1, 14] was 78.74 % area. For the same compound, the Perphenazine % area [1, 14] was 21.26 % area, the “Free base % area” value [1, 15] was 20.09 % area and the Perphenazine % area [1, 15] was 79.91 % area. The “Free base % area” value [1, 16] was 6.12 % area, the Perphenazine % area [1, 16] was 93.88 % area and the “Free base % area” value [1, 17] was 5.52 % area. The Perphenazine % area [1, 17] was 94.48 % area, the “Free base % area” value [1, 18] was 3.93 % area and the Perphenazine % area [1, 18] was 96.07 % area.

For `NCCCC(=O)OCCN1CCN(CCCN2c3ccccc3Sc3ccc(Cl)cc32)CC1.O=C(O)C(=O)O.O=C(O)C(=O)O.O=C(O)C(=O)O` [oxalate addition salt], the “stability and hygroscopicity in words” value ([2]; as compared to the HCl salt (AN-168)) was “more stable and less hygroscopic”, the “perphenazine content (HPLC)” value [2, 19] was 1.71% and the “purity of the salt (HPLC)” value [2, 19] was 94.61%. For the same compound, the “perphenazine content (HPLC)” value ([2]; initial) was 0.75%, the “purity of the salt (HPLC)” value ([2]; initial) was 98.05% and the “water content (KF)” value [3, 19] was 1.90 weight percents. The “water content (KF)” value ([3]; initial) was 1.36 weight percents.

For `NCCCC(=O)OCCN1CCN(CCCN2c3ccccc3Sc3ccc(Cl)cc32)CC1.O=S(=O)(O)c1cccc2ccccc12.O=S(=O)(O)c1cccc2ccccc12.O=S(=O)(O)c1cccc2ccccc12` [1-napsylate salt], the degradation to perphenazine [4, 20] was “minimal degradation”, the stability in words [4, 20] was “stable” and the stability in words ([4]; stored at both −20° C. and 0° C. under nitrogen in a closed container) was “highly stable”.

Work on `Cl.NCCCC(=O)OCCN1CCN(CCCN2c3ccccc3Sc3ccc(Cl)cc32)CC1` [AN-168, Perphenazine 4-Aminobutyrate Hydrochloride] yielded an AN-168 % area [5, 21] of 98.64 % area, a Perphenazine % area [5, 21] of 1.36 % area and an AN-168 % area [5, 22] of 98.57 % area. It also gave a Perphenazine % area [5, 22] of 1.43 % area, an AN-168 % area [5, 23] of 98.52 % area and a Perphenazine % area [5, 23] of 1.48 % area. The AN-168 % area [5, 24] was 98.40 % area, the Perphenazine % area [5, 24] was 1.60 % area and the AN-168 % area [5, 25] was 98.13 % area. The Perphenazine % area [5, 25] was 1.87 % area, the AN-168 % area [5, 26] was 97.21 % area and the Perphenazine % area [5, 26] was 2.03 % area. It also gave an AN-168 % area [5, 27] of 97.95 % area, a Perphenazine % area [5, 27] of 2.05 % area and an AN-168 % area [5, 28] of 97.15 % area. For the same compound, the Perphenazine % area [5, 28] was 2.85 % area, the AN-168 % area [5, 29] was 96.14 % area and the Perphenazine % area [5, 29] was 3.49 % area. It also gave an AN-168 % area [5, 30] of 98.64 % area, a Perphenazine % area [5, 30] of 1.36 % area and an AN-168 % area [5, 31] of 98.42 % area. The Perphenazine % area [5, 31] was 1.58 % area, the AN-168 % area [5, 32] was 98.31 % area and the Perphenazine % area [5, 32] was 1.69 % area. It also gave an AN-168 % area [5, 33] of 97.68 % area, a Perphenazine % area [5, 33] of 2.32 % area and an AN-168 % area [5, 34] of 97.26 % area. It also gave a Perphenazine % area [5, 34] of 2.74 % area, an AN-168 % area [5, 35] of 96.26 % area and a Perphenazine % area [5, 35] of 3.74 % area. For the same compound, the AN-168 % area [5, 36] was 95.58 % area, the Perphenazine % area [5, 36] was 4.51 % area and the AN-168 % area [5, 37] was 94.60 % area. The Perphenazine % area [5, 37] was 5.40 % area, the AN-168 % area [5, 38] was 93.80 % area and the Perphenazine % area [5, 38] was 5.87 % area. The AN-168 % area [5, 39] was 98.64 % area, the Perphenazine % area [5, 39] was 1.36 % area and the AN-168 % area [5, 40] was 97.97 % area. It also gave a Perphenazine % area [5, 40] of 2.03 % area, an AN-168 % area [5, 41] of 97.70 % area and a Perphenazine % area [5, 41] of 2.30 % area. The AN-168 % area [5, 42] was 96.95 % area, the Perphenazine % area [5, 42] was 3.05 % area and the AN-168 % area [5, 43] was 97.03 % area. It also gave a Perphenazine % area [5, 43] of 2.97 % area, an AN-168 % area [5, 44] of 96.69 % area and a Perphenazine % area [5, 44] of 3.31 % area. It also gave an AN-168 % area [5, 45] of 95.55 % area, a Perphenazine % area [5, 45] of 4.45 % area and an AN-168 % area [5, 46] of 95.62 % area. The Perphenazine % area [5, 46] was 3.92 % area, the AN-168 % area [5, 47] was 95.55 % area and the Perphenazine % area [5, 47] was 4.06 % area. The stability in words ([5]; over time, at each of the tested temperatures (5, 20, 40° C.)) was “degraded into perphenazine and GABA and/or underwent trans-esterification to perphenazine and 2-pyrrolidinone”, the hygroscopicity ([6]; final product) was “hygroscopic” and the “water content (KF)” value ([6]; final product, recrystallized) was 1.05 % weight/weight. For the same compound, the “water content (KF)” value ([6]; repeated procedure with additional 2 hours at 40° C.) was 12.5 % weight/weight.
